The record followed here is patent publication EP0808833B1, “Vitamin D3 analogs” (F. HOFFMANN-LA ROCHE AG, priority 1996, dated 1997).

Read-outs that look alike come from different tables or passages of the source. Marks after values point to notes of the source that are not given here.

The nature of series [1]: Calcium tolerance test in mice. As to conditions: highest tolerated dose = dose resulting in zero weight gain, daily subcutaneous administration for 4 consecutive days; for MTD: mouse, in vivo, sc, read-out: HTD. Type of series: in vivo. The source says: Calcium tolerance test in mice
Profound changes in calcium homeostasis strongly affect the weight development of mice. Mice (25-30 g body weight) received daily subcutaneous administrations of the compound for 4 consecutive days. Body weight was registered just before and at the end of a […] treatment period. The "highest tolerated dose" (HTD) is the dose which results in zero weight gain during this treatment period.

The subject of a further series is sebaceous cells. The series can be described thus: Inhibition of human sebocyte proliferation in vitro. Type of series: cell-based. As to conditions: amount of compound necessary to inhibit proliferation of sebaceous cells by 50% as compared to a vehicle-treated culture, tested at 10^-6, 10^-7 and 10^-8 M, read-out: ED50 (the source's name). How it is done: Inhibition of Human Sebocyte Proliferation In Vitro
The cells were cultured in Iscove's medium containing 10% fetal calf serum and 4 µg/ml dexamethasone on a layer of growth-arrested 3T3 mouse fibroblasts. Cells were plated in medium without the test compound and then given test compound in fresh medium 24-48 hours after the initial plating. The cultures were given fresh medium, containing the test compound, every 48 hours. On the day of harvesting, the cultures were rinsed with 0.03% EDTA (ethylenediamine tetroacetic acid) in PBS (phosphate-buffered saline), to remove only the 3T3 fibroblasts, followed by incubation in 0.05% trypsin/0.03% EDTA. The cells were suspended, mixed vigorously to prepare a single cell suspension and counted in a hemocytometer.
Stock solutions of compounds were made up as 10^-2 M solutions in degassed 100% ethanol and stored at -20°C in the dark. During experimental use, the solutions, which have been aliquoted, were brought to room temperature and used by diluting directly into complete medium to the appropriate concentration.

For series [2], the system named is UVB-Induced Dermal Damage. The series can be described thus: Repair of UVB-induced dermal damage in the hairless mouse. Type of series: in vivo, Hairless mice. As to conditions: treated three times per week after UVB irradiation. How it is done: Repair of UVB-Induced Dermal Damage in the Hairless Mouse by Compounds of Formula I Hairless mice (female, HRS/J strain, Jackson Labs, 5-7 weeks old at the start of the experiments) were housed in yellow light and irradiated three times per week with a bank of 8 Westinghouse Sunlamps (FS72T12 HO, peak irradiance at 313 nm) placed about 20 cm above the animals. UVB output was measured on an International Light Research Radiometer, model IL 1700, using a SEE240 detector. With this setup, the lamp output was approximately 3.5 mW/cm^2 and the time of exposure for 0.06 J/cm^2 was about 17 seconds; 1 MED is approximately 0.03 J/cm^2. The precise dose was delivered by a IL […] Phototherapy Exposure Control. Daily doses were 0.03 J/cm^2 for two weeks, 0.06 J/cm^2 for two weeks and 0.08 J/cm^2 thereafter, until a total dose of approximately 4 J/cm^2 was accumulated. To effect repair of the dermal damage, the UVB irradiation was discontinued and the animals were divided into groups of approximately eight and treated three times per week with various concentrations of the vitamin D analogs dissolved in ethanol. All dosing was done under yellow light. […] In these studies, since the width of the zone varies considerably, the area of the zone on a standard length of histological section is measured by image analysis. Compounds are tested at three doses and an approximate ED50 calculated.

A further series deals with HaCaT cells. The series is described as follows: Inhibition of keratinocyte proliferation (3H-thymidine uptake, HaCaT). Type of series: cell-based. As to conditions: Homo sapiens, 3H-thymidine incorporation after 6 days of culture in presence of the test compound. For orientation: Dividing cells build labelled thymidine or BrdU into new DNA.
In a further series the test system is HL-60 cells. The series is described as follows: HL-60 cell differentiation (NBT reduction). Type of series: cell-based. As to conditions: Homo sapiens, HL-60, 72 h, concentration leading to 50% of maximal differentiation achieved with 100-1000 nM calcitriol, 3 days, read-out: ED50 (the source's name).
Series [3] deals with T47-D breast carcinoma cells. The series is described as follows: Antiproliferative activity in T47-D breast carcinoma cells (MTT). Type of series: cell-based. As to conditions: Homo sapiens, T47D, 72 h.

On to “1,25-Dihydroxy-16,23Z-diene-26,27-hexafluoro-20-epi-19-norcholecalciferol”, for which the HTD in series [1] was 3.0 µg/kg.
On the same count and under the same terms, to `C=C1C(=CC=C2CCCC3(C)C(C(C)C/C=C\C(O)(C(F)(F)F)C(F)(F)F)=CCC23)CC(O)CC1O` (stereo not drawn) [1,25-Dihydroxy-16,23Z-diene-26,27-hexafluoro-20-epi-cholecalciferol] belongs 2.5 µg/kg.
Turning to `C=C1/C(=C\C=C2/CCC[C@]3(C)C([C@@H](C)CC#CC(O)(C(F)(F)F)C(F)(F)F)=CC[C@@H]23)C[C@@H](O)C[C@@H]1O` [1,25-Dihydroxy-16-ene-23-yne-26,27-hexafluoro-20-epi-cholecalciferol], the HTD in series [1] is listed as 6.0 µg/kg. For the same compound, the EC50 in the series with sebaceous cells is under 10 nM.
On the same counts, the results for `C=C1C(=CC=C2CCCC3(C)C(C(C)CC#CC(C)(C)O)=CCC23)CC(O)CC1O` (stereo not drawn) [1,25-Dihydroxy-16-ene-23-yne-20-epi-cholecalciferol] are 100 µg/kg and 50 nM.
In general, IC50 refers to the concentration that gives 50% inhibition. On to `C=C1/C(=C\C=C2/CCC[C@]3(C)C([C@@H](C)C/C=C/C(O)(C(F)(F)F)C(F)(F)F)=CC[C@@H]23)C[C@@H](O)C[C@@H]1O` [1,25-Dihydroxy-16,23E-diene-26,27-hexafluoro-20-epi-cholecalciferol], for which the “Repair Zone” value in series [2] (Dose 0.1 µg, P < 0.001 vs vehicle control) was 0.0282±0.0092*** mm^2; in series [2] (Dose 0.5 µg, P < 0.05 vs vehicle control), 0.0102±0.0067* mm^2. Further, in series [1], the MTD came to 2.5 µg/kg. The IC50 worked out at 0.7 nM in the series with HaCaT cells and 10 nM in series [3]. Further, the EC50 was under 10 nM in the series with sebaceous cells (Homo sapiens) and 0.37 nM with HL-60 cells.
As to `C=C1C(=CC=C2CCCC3(C)C(C(C)CCCC(C)(C)O)=CCC23)CC(O)CC1O` (stereo not drawn) [1,25-Dihydroxy-16-ene-20-epi-cholecalciferol], the HTD in series [1] was 30 µg/kg. For the same compound, in the series on sebaceous cells, the EC50 was under 1 nM.
Regarding `C=C1C(=CC=C2CCCC3(C)C(C(C)C/C=C\C(O)(C(F)(F)F)C(F)(F)F)=CCC23)CC(O)CC1F` (stereo not drawn) [1α-Fluoro-25-hydroxy-16,23Z-diene-26,27-hexafluoro-20-epi-cholecalciferol], the HTD in series [1] is listed as 8.0 µg/kg.
With `C=C1/C(=C\C=C2/CCC[C@]3(C)[C@@H]([C@H](C)CCCC(C)(C)O)CC[C@@H]23)C[C@@H](O)C[C@@H]1O` [1,25-Dihydroxy-cholecalciferol, reference compound], in series [1], the MTD was 0.5 µg/kg.
